In BindingDB's records for doi:10.7270/Q2MW2FMC (Nmmlsc, 2011):
pEC50: −log10 of the molar value.

Target: T1, Ammonium transporter MEP2 (Saccharomyces cerevisiae (strain ATCC 204508 / S288c), UniProt P41948)
T1 sequence (P41948 whole entry): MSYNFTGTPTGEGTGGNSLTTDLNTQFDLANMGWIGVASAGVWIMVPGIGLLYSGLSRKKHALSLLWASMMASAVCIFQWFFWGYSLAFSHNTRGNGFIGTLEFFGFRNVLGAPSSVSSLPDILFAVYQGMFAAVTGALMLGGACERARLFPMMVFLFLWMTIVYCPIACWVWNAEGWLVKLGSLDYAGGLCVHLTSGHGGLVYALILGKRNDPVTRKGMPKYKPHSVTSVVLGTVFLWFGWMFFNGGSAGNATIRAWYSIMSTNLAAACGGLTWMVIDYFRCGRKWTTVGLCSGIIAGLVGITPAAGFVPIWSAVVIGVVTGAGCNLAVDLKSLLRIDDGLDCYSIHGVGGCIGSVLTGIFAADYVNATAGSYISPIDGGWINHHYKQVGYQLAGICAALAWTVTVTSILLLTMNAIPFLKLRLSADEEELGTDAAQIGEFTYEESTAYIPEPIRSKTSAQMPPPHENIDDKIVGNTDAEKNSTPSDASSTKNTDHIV
Test: compound effects on MEP2-GFP, TOR pathway – S. cerevisiae, multiplex GFP fusions, cherry pick 3, SAR follow-up (AID 488812)
Conditions: inactive by the depositor's call

pEC50 | SMILES
4.17 | CCOC(=O)CS(=O)(=O)c1nc(-c2ccccc2)cc(C(F)(F)F)n1 [2-[4-phenyl-6-(trifluoromethyl)pyrimidin-2-yl]sulfonylacetic acid ethyl ester]
1.44 | Oc1c(Cl)cc(Cl)c2cccnc12 [AS-229]
4.13 | Nc1ncnc(Nc2cc(Cl)cc(Cl)c2)c1[N+](=O)[O-] [MLS000581561]
